One sequence from article PMC4304871 (Nature structural & molecular biology, 2014) can be followed below.

The test system of the experiment is 10E8 antibody. In words: Competitive 10E8 ELISA binding assay. The arrangement: species or system human.

Regarding “ELXKWAXLWNWFNITNZLWXIK (bicyclic or more) [SAH-MPER(662–683)(C,q)]”, the “10E8 Fab-binding activity (in words)” value is “no binding activity”.
